In PMC4452589, “An evaluation of the brain distribution of [^11C]GSK1034702, a muscarinic-1 (M1) positive allosteric modulator in the living human brain using positron emission tomography” (EJNMMI Research, 2014):
Where two headings read alike, the source gives them in different places. One block for each molecule: values may come before it.

Columns and labels:
[1] = plasma concentration after single 5-mg oral dose in humans; type: in vivo; details: human, read-out: GSK1034702 plasma concentration at start of post-dose PET scan
Description: Serial venous blood samples were obtained at 0, 1, 2, 3, 4 and 5.5 h after the administration of a single oral dose of 5 mg of GSK1034702, to estimate the time course of GSK1034702 plasma concentration. Plasma samples were analysed using a validated analytical method.

[2] = [11C]GSK1034702 PET brain distribution and kinetics in anaesthetised baboons; type: in vivo, Papio anubis; details: for Kp: baboon (Papio anubis), intravenous
Description: The brain distribution of carbon-11-labelled GSK1034702 ([^11C]GSK1034702) was conducted in two anaesthetised baboons (P. anubis), to assess its transport across the BBB. These studies were conducted at Columbia University Medical Center, New York. The study was approved by the Columbia University Institutional Animal Care and Use Committee (IACUC).
Two adult baboons were studied over a 6-week period. Subject A (an ovariectomised female) received two injections of [^11C]GSK1034702 22 days apart, while subject B (male) received a single injection of [^11C]GSK1034702. Each experimental session included a single dynamic PET scan.
Fasted animals were immobilised with intramuscular ketamine injection (10 mg/kg), and anesthetised with 1.8% isoflurane via an endotracheal tube. Vital signs were monitored every 10 min and the temperature was kept constant at 37°C with heated water blankets. An intravenous (IV) perfusion line was used for hydration and injection of the radiotracer. A catheter was inserted in a femoral artery for arterial blood sampling. The head was positioned at the centre of the field of view. PET imaging was performed with the ECAT EXACT HR + PET scanner (Siemens/CTI, Knoxville, TN) operating in 3D mode (in-plane resolution of 4.3, 4.5, 5.4 and 8.0 mm, full width at half maximum (FWHM) at a distance of 0, 1, 10 and 20 cm from the centre of the field of view). A 15-min transmission scan was obtained prior to radiotracer injection for attenuation correction. […] Following IV administration (45-s bolus) of a single dose of [^11C]GSK1034702 dynamic PET, arterial blood and metabolite data were acquired for 120 min (subject A) for the first two scans and only 60 min for the third scan due to a technical issue (subject B).
Regions of interest (ROIs) were drawn on previously acquired T1-weighted anatomical magnetic resonance imaging (MRI) brain images for each animal. The following regions were defined: cerebellum, hippocampus, thalamus, striatum, frontal cortex and occipital cortex. Regions were drawn in the MEDx (Sensor Systems Inc., Sterling, VA, USA) software environment. PET emission data were attenuation-corrected using the transmission scan, and frames were reconstructed using a Shepp filter (cutoff 0.5 cycles/projection rays). Decay-corrected PET images were registered to the MRI images by maximisation of mutual information using SPM2 and Matlab software. Regional boundaries were transferred from the MRI to the individual registered PET frames, and time-activity curves were measured in the MEDx environment. Right and left regions were averaged. For a given animal, the same regions were used for all scans.
Brain time activity curves (TACs) were corrected for the contribution of blood activity assuming a 5% blood volume. A metabolite-corrected arterial input function and regional TACs were fitted to a compartmental model to derive regional VT estimates as well as a whole brain VT.

[3] = set-up: method as in PMID 22932339; details: healthy smokers, nicotine abstinence model of cognitive dysfunction; cited from earlier work
[4] = plasma protein binding by equilibrium dialysis, monkey; type: in vitro ADME; details: equilibrium dialysis 5 h
Description: (§1) The in vitro brain and plasma protein binding of GSK1034702 across a range of species was determined using equilibrium dialysis as described previously.

[5] = system: human recombinant m1AChR; set-up: method as in earlier work; details: cited from earlier work
[6] = plasma protein binding by equilibrium dialysis, rat; type: in vitro ADME; details: equilibrium dialysis 5 h
Description: as §1

[7] = set-up: method as in GlaxoSmithKline (GSK) data on file; details: rat; ref GlaxoSmithKline (GSK) data on file; cited from earlier work
[8] = fP/fND ratio from equilibrium dialysis (expected VT for passive diffusion), primate; type: in vitro ADME; details: primate brain; monkey fP and monkey brain fND
Text: If a value for fND can be obtained, then the assumption of passive diffusion across the BBB can be tested. Under the conditions of passive diffusion, at equilibrium, CFT = CFP, and Eq. 3 is simplified to:4 VT=fP/fND
A VT measurement from a PET biodistribution study can be compared to the fP/fND ratio, and passive diffusion can be assumed if the two are similar. Equilibrium dialysis provides a practical method for measurements of brain tissue fND (and also fP if necessary).
Regional TACs with an arterial plasma metabolite- corrected input function were fitted using compartmental analyses, and estimates of the delivery rate constant for transfer from arterial plasma to tissue (K1) and VT were obtained. VT estimates derived were compared to in vitro estimates derived from equilibrium dialysis to investigate the BBB transport process.
as §1

[9] = parent fraction in arterial plasma by HPLC during PET scan; type: in vivo; details: human, baseline and post-dose sessions, 90 min
Description: Arterial blood radioactivity was measured continuously for the first 15 min after [^11C]GSK1034702 injection, using a continuous sampling system (ABSS Allogg, Mariefred, Sweden). In addition, 12 serial discrete blood samples were obtained (at 5, 10, 15, 20, 25, 30, 40, 50, 60, 70, 80 and 90 min post injection), to determine whole blood and plasma activity. Seven samples (at 5, 10, 20, 30, 50, 70 and 90 min) were further processed by HPLC to measure the fraction of plasma activity representing unmetabolised GSK1034702. For all human studies, the non-protein-bound fraction of [^11C]GSK1034702 in arterial plasma (fP) was assessed by ultrafiltration for the blood sample taken at the beginning of the scan.

[10] = both sexes, whole brain, Papio anubis, mean ± SD of three scans, two-tissue compartmental model, read-out: whole brain VT

concentration at 3.2 h ([1]; Subject 2, 3.2 hours post dose): 7.9 ng/mL | concentration at 4.4 h ([1]; Subject 3, 4.4 hours post dose): 13.2 ng/mL | concentration at 3.8 h ([1]; Subject 4, 3.8 hours post dose): 10.4 ng/mL | Kp ([2]; both sexes, cortex, primate, as worded, read-out: VT measured in the primate cortex): 4 | Kp [2, 10]: 3.97 | fraction unbound at 5 h, 1 μg/mL ([4]; mean ± SD, n = 6, read-out: Plasma protein binding (converted)): 0.583 | fraction unbound at 5 h, 1 μg/mL ([4]; read-out: f P (plasma-free fraction)): 0.58 | fraction unbound at 5 h, 1 μg/mL ([6]; Rat (CD), read-out: f P (plasma-free fraction)): 0.53 | fraction unbound at 5 h, 1 μg/mL ([6]; Rat (CD, Sprague Dawley), mean ± SD, n = 6, read-out: Plasma protein binding (converted)): 0.528 | fraction unbound at 5 h, 1 μg/mL ([6]; Rat (LH), read-out: f P (plasma-free fraction)): 0.55 | fraction unbound at 5 h, 1 μg/mL ([6]; Rat (LH, Lister hooded), mean ± SD, n = 6, read-out: Plasma protein binding (converted)): 0.545 | fP/fND ratio (expected VT if passive diffusion) [8]: 3.4
SMILES: Cc1cc(F)c2[nH]c(=O)n(C3CCN(C4CCOCC4)CC3)c2c1 [GSK1034702]
effect on episodic memory [3]: improved episodic memory | pEC50 ([5]; allosteric agonist at human recombinant m1AChR): 8.1 ± 0.1 | intrinsic activity (IA) ([5]; human recombinant m1AChR): 0.78 ± 0.02 | brain/blood ratio [7]: 0.6

Regional K1 ([2]; Cerebellum, Subject A Exam 1, baboon): 0.46 mL.cm^-3.min^-1 | Regional K1 ([2]; Cerebellum, Subject A Exam 2, baboon): 0.57 mL.cm^-3.min^-1 | Regional K1 ([2]; Cerebellum, Subject B Exam 1, baboon): 0.35 mL.cm^-3.min^-1 | Regional K1 ([2]; Frontal Ctx, Subject A Exam 1, baboon): 0.39 mL.cm^-3.min^-1 | Regional K1 ([2]; Frontal Ctx, Subject A Exam 2, baboon): 0.53 mL.cm^-3.min^-1 | Regional K1 ([2]; Frontal Ctx, Subject B Exam 1, baboon): 0.32 mL.cm^-3.min^-1 | Regional K1 ([2]; Hippocampus, Subject A Exam 1, baboon): 0.39 mL.cm^-3.min^-1 | Regional K1 ([2]; Hippocampus, Subject A Exam 2, baboon): 0.60 mL.cm^-3.min^-1 | Regional K1 ([2]; Hippocampus, Subject B Exam 1, baboon): 0.32 mL.cm^-3.min^-1 | Regional K1 ([2]; Occipital Ctx, Subject A Exam 1, baboon): 0.67 mL.cm^-3.min^-1 | Regional K1 ([2]; Occipital Ctx, Subject A Exam 2, baboon): 0.53 mL.cm^-3.min^-1 | Regional K1 ([2]; Occipital Ctx, Subject B Exam 1, baboon): 0.37 mL.cm^-3.min^-1 | whole brain VT ([2]; Papio anubis, mean ± SD of three scans, two-tissue compartmental model): 3.97 ± 0.38 mL.cm^−3 | Regional K1 ([2]; Striatum, Subject A Exam 1, baboon): 0.39 mL.cm^-3.min^-1 | Regional K1 ([2]; Striatum, Subject A Exam 2, baboon): 0.51 mL.cm^-3.min^-1 | Regional K1 ([2]; Striatum, Subject B Exam 1, baboon): 0.39 mL.cm^-3.min^-1 | Regional K1 ([2]; Thalamus, Subject A Exam 1, baboon): 0.44 mL.cm^-3.min^-1 | Regional K1 ([2]; Thalamus, Subject A Exam 2, baboon): 0.52 mL.cm^-3.min^-1 | Regional K1 ([2]; Thalamus, Subject B Exam 1, baboon): 0.27 mL.cm^-3.min^-1 | Regional K1 ([2]; Whole Brain, Subject A Exam 1, baboon): 0.45 mL.cm^-3.min^-1 | Regional K1 ([2]; Whole Brain, Subject A Exam 2, baboon): 0.50 mL.cm^-3.min^-1 | Regional K1 ([2]; Whole Brain, Subject B Exam 1, baboon): 0.35 mL.cm^-3.min^-1 | Kp [2, 10]: 3.97 | Kp ([2]; female, cerebellum, Cerebellum, Subject A Exam 1, baboon, read-out: Regional V T): 4.07 | Kp ([2]; female, cerebellum, Cerebellum, Subject A Exam 2, baboon, read-out: Regional V T): 3.79 | Kp ([2]; female, frontal cortex, Frontal Ctx, Subject A Exam 1, baboon, read-out: Regional V T): 3.92 | Kp ([2]; female, frontal cortex, Frontal Ctx, Subject A Exam 2, baboon, read-out: Regional V T): 3.73 | Kp ([2]; female, hippocampus, Hippocampus, Subject A Exam 1, baboon, read-out: Regional V T): 4.78 | Kp ([2]; female, hippocampus, Hippocampus, Subject A Exam 2, baboon, read-out: Regional V T): 4.62 | Kp ([2]; female, occipital cortex, Occipital Ctx, Subject A Exam 1, baboon, read-out: Regional V T): 4.49 | Kp ([2]; female, occipital cortex, Occipital Ctx, Subject A Exam 2, baboon, read-out: Regional V T): 4.64 | Kp ([2]; female, striatum, Striatum, Subject A Exam 1, baboon, read-out: Regional V T): 3.86 | Kp ([2]; female, striatum, Striatum, Subject A Exam 2, baboon, read-out: Regional V T): 3.95 | Kp ([2]; female, thalamus, Thalamus, Subject A Exam 1, baboon, read-out: Regional V T): 4.06 | Kp ([2]; female, thalamus, Thalamus, Subject A Exam 2, baboon, read-out: Regional V T): 3.91 | Kp ([2]; female, whole brain, Whole brain, Subject A Exam 1, baboon, read-out: Regional V T): 4.2 | Kp ([2]; female, whole brain, Whole brain, Subject A Exam 2, baboon, read-out: Regional V T): 4.19 | Kp ([2]; male, cerebellum, Cerebellum, Subject B Exam 1, baboon, read-out: Regional V T): 3.09 | Kp ([2]; male, frontal cortex, Frontal Ctx, Subject B Exam 1, baboon, read-out: Regional V T): 3.52 | Kp ([2]; male, hippocampus, Hippocampus, Subject B Exam 1, baboon, read-out: Regional V T): 3.52 | Kp ([2]; male, occipital cortex, Occipital Ctx, Subject B Exam 1, baboon, read-out: Regional V T): 3.89 | Kp ([2]; male, striatum, Striatum, Subject B Exam 1, baboon, read-out: Regional V T): 3.21 | Kp ([2]; male, thalamus, Thalamus, Subject B Exam 1, baboon, read-out: Regional V T): 2.75 | Kp ([2]; male, whole brain, Whole brain, Subject B Exam 1, baboon, read-out: Regional V T): 3.52 | metabolism over the time course of the PET scan (parent fraction in plasma) [9]: minimal metabolism
SMILES: [11CH3]c1cc(F)c2[nH]c(=O)n(C3CCN(C4CCOCC4)CC3)c2c1 [[^11C]GSK1034702]
